In ChEMBL document CHEMBL3259793, “Novel cycloalkenepyrazoles as inhibitors of bub1 kinase” (ACS Med Chem Lett, 2014) one finds IC50 data, which are given here for one compound.

The experiment addresses Mitotic checkpoint serine/threonine-protein kinase BUB1 (Homo sapiens, UniProt O43683). The experiment can be described thus: Inhibition of Bub1 kinase (unknown origin) by TR-FRET kinase assay. In general terms: In TR-FRET formats the signal depends on donor and acceptor labels being close together.

Chain of Mitotic checkpoint serine/threonine-protein kinase BUB1 (O43683 whole entry): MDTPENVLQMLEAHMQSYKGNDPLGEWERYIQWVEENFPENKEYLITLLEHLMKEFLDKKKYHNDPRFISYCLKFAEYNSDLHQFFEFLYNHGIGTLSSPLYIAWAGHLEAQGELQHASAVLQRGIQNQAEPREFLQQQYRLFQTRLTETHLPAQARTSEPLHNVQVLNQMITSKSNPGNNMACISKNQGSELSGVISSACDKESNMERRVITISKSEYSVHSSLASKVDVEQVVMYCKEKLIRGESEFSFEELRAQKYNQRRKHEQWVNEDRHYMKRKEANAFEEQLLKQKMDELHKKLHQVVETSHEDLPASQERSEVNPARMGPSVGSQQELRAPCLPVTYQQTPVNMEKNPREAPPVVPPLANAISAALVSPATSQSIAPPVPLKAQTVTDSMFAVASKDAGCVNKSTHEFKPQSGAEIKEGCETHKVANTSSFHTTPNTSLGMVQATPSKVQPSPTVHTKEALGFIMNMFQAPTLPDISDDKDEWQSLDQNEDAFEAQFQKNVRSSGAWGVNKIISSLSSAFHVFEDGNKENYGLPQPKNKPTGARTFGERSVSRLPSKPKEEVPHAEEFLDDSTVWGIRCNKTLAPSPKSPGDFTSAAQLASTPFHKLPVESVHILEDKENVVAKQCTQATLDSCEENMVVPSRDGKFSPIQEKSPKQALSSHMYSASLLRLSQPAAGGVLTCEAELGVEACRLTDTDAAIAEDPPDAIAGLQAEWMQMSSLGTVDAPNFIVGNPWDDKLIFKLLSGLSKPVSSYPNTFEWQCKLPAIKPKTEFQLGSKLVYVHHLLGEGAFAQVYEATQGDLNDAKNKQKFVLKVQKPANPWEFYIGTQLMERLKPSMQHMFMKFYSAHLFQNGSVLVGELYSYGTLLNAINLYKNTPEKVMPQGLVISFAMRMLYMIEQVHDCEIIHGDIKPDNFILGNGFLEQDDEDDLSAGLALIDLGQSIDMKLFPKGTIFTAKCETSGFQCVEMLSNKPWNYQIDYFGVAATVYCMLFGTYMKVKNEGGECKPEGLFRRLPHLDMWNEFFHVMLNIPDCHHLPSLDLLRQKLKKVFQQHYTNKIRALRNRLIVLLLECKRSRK

The term IC50 denotes the concentration that inhibits the measured activity by half. High values mean a need for much substance, low ones inhibition by little substance. `CCOC(=O)c1cnccc1Nc1nc(-c2nn(Cc3ccccc3F)c3c2CCC3)ncc1Oc1ccccc1C(=O)OCC` displayed an IC50 of 500 nM.
